≈ marks a conversion by molar mass, not a printed value. Where two headings read alike, the source gives them in different places.
Experiments:
[1] = system: Candida albicans; test: in vitro antifungal susceptibility testing (MIC, MFC; broth macrodilution), Tables 1-7; assay type: cell-based; conditions: for MIC: 35° C., reading at 48 hours, read-out: MIC80 (Minimum inhibitory concentration 80%); for MFC: three or fewer colonies, read-out: MFC (Minimum fungicidal concentration)
Text: (§1) The fungi that were employed included two reference strains, C. neoformans var. neoformans H99 and C. albicans A39 and the following clinical isolates: (1) two strains of fluconazole-resistant C. neoformans var. neoformans (135.95 and 114.96); (2) two strains of C. neoformans var. gattii (119.95 and 114.95); (3) two strains of fluconazole-resistant C. albicans (102.96 and 103.96); and (4) one strain each of Torulopsis glabrata (142.91), Candida parapsilosis (111.96), Candida krusei (132.91), C. tropicalis (110.96), Candida lusitaniae (111.92), Fusarium solani (152.89), Aspergillus fumigatus (168.95), and Aspergillus flavus (112.96). Antifungal susceptibility testing was performed using an RPMI-1640 medium (Sigma Chemical Co., St. Louis, Mo.) with glutamine, without sodium bicarbonate, and buffered at pH 7.0 with 0.165 M morpholine-propanesulfonic acid (MOPS).
(§2) In vitro susceptibility testing in the form of Minimum Inhibitory Concentration (MIC) experiments were performed using the broth macrodilution method according to the recommendations of the National Committee for Clinical Laboratory Standards (see 1995 manual). The only difference compared to the standardized procedure was the choice of drug dilutions ranging from 100 to 0.09 μg/ml. Briefly, this procedure specifies an inoculum grown at 35° C. and adjusted to a concentration of 0.5-2.5×10^3 CFU/ml with an incubation of the test performed at 35° C. and reading at 48 hours for all yeasts except for C. neoformans which is interpreted at 72 hr.
(§3) Minimum Fungicidal Concentration (MFC) experiments were adapted from a method by McGinnis (McGinnis, M. R., (1980) "Susceptibility testing and bioassay procedure", p. 431, Academic Press, Inc., New York). Briefly, 10 μl aliquots from tubes with growth inhibition were plated onto Sabouraud agar plates.
(§4) The fungi that were employed included two quality control reference strains, C. neoformans var. neoformansH99 and C. albicans A39 and the following clinical isolates: (1) four strains of C. neoformans var. neoformans (167.95; 135.95; 114.96; and 133.95) of which three were fluconazole-resistant>64 μg/ml (135.95; 114.96; and 133.95); (2) two strains of C. neoformans var. gattii (119.95 and 114.95); (3) two strains of fluconazole-resistant>64 μg/ml C. albicans (102.96 and 103.96); and (4) one strain each of C. glabrata (142.91), Candida parapsilosis (111.96), Candida krusei (132.91), C. tropicalis (110.96), Candida lusitaniae (111.92), Fusarium solani (152.89), Aspergillus fumigatus (168.95), Rhizopus arrhizus (117.89), Paecilomyces lilacinus (137.90), and Aspergillus flavus (112.96). Antifungal susceptibility testing was performed using an RPMI-1640 medium (Sigma Chemical Co., St. Louis, Mo.) with glutamine, without sodium bicarbonate, and buffered at pH 7.0 with 0.165 M morpholinepropanesulfonic acid (MOPS).
as §3, with “p.431,” for “p. 431,”

[2] = system: Cryptococcus neoformans; test: as above; assay type: cell-based; conditions: for MIC: 35° C., 72 hr, read-out: MIC80 (Minimum inhibitory concentration 80%); for MFC: read-out: MFC (Minimum fungicidal concentration)
Text: as §1, §2, §3, §4
as §3, with “p.431,” for “p. 431,”

[3] = Table 1, three or fewer colonies
[4] = Tables 2-7, three or fewer colonies

Structure (SMILES)	MIC [1] [µg/mL]	MIC [2] [µg/mL]	MFC [1] [µg/mL]	MFC [2, 3] [µg/mL]	MFC [2, 4] [µg/mL]
N=C(N)c1cccc(OCCCCOc2cccc(C(=N)N)c2)c1 [Compound 16]	12.5 (≈ 38.3 µM)	25 (≈ 76.6 µM)	25 (≈ 76.6 µM)	25 (≈ 76.6 µM)	–
N=C(N)c1ccc(NCCCNc2ccc(C(=N)N)cc2)cc1 [Compound 8]	0.19 (≈ 0.612 µM)	1.56 (≈ 5.03 µM)	0.39 (≈ 1.26 µM)	6.25 (≈ 20.1 µM)	–
N=C(N)c1ccc(NCCCCCCNc2ccc(C(=N)N)cc2N)c(N)c1 [Compound 20]	0.78 (≈ 2.04 µM)	0.78 (≈ 2.04 µM)	3.12 (≈ 8.16 µM)	3.12 (≈ 8.16 µM)	–
COc1cc(C(=N)N)ccc1OCCCOc1ccc(C(=N)N)cc1OC [Compound 4]	12.5 (≈ 33.6 µM)	12.5 (≈ 33.6 µM)	50 (≈ 134 µM)	12.5 (≈ 33.6 µM)	–
CCCNC(=N)c1ccc(-c2ccc(-c3ccc(C(=N)NCCC)cc3)o2)cc1 [Compound 24]	12.5 (≈ 32.2 µM)	1.56 (≈ 4.02 µM)	12.5 (≈ 32.2 µM)	–	6.25 (≈ 16.1 µM)
N=C(N)c1ccc(NCCCCCNc2ccc(C(=N)N)cc2)cc1 [Compound 18]	≤ 0.09	0.78 (≈ 2.3 µM)	0.39 (≈ 1.15 µM)	1.56 (≈ 4.61 µM)	–
CN1CCN=C1c1ccc(OCCCCOc2ccc(C3=NCCN3C)cc2)cc1 [Compound 15]	> 100	> 100	> 100	> 100	–
CN(C)CCNC(=N)c1cccc(-c2ccc(-c3cccc(C(=N)NCCN(C)C)c3)o2)c1 [Compound 41]	> 100	12.5 (≈ 28 µM)	–	–	50 (≈ 112 µM)

Continued, in another order:

MIC [1] [µg/mL]	MIC [2] [µg/mL]	Structure (SMILES)	MFC [1] [µg/mL]	MFC [2, 3] [µg/mL]	MFC [2, 4] [µg/mL]
12.5 (≈ 36.7 µM)	25 (≈ 73.4 µM)	N=C(N)c1ccc(NCCCNc2ccc(C(=N)N)cc2N)c(N)c1 [Compound 9]	> 100	50 (≈ 147 µM)	–
> 100	100 (≈ 260 µM)	c1cc2nc(Cc3nc4ccc(C5=NCCN5)cc4[nH]3)[nH]c2cc1C1=NCCN1 [Compound 29]	> 100	–	> 100
0.78 (≈ 1.71 µM)	0.39 (≈ 0.854 µM)	N=C(N)c1ccc(OCCCCCOc2ccc(-c3nc4ccc(C(=N)N)cc4[nH]3)cc2)cc1 [Compound 66]	1.56 (≈ 3.42 µM)	–	6.25 (≈ 13.7 µM)
> 100	–	N=C(N)c1cccc(OCCCOc2cccc(C(=N)N)c2)c1 [Compound 7]	> 100	–	–
12.5 (≈ 35.1 µM)	12.5 (≈ 35.1 µM)	N=C(N)c1ccc(OCCC(O)CCOc2ccc(C(=N)N)cc2)cc1 (stereo not shown) [Compound 22]	12.5 (≈ 35.1 µM)	–	12.5 (≈ 35.1 µM)
12.5 (≈ 30 µM)	3.12 (≈ 7.49 µM)	CC(C)CNC(=N)c1ccc(-c2ccc(-c3ccc(C(=N)NCC(C)C)cc3)o2)cc1 [Compound 27]	–	–	12.5 (≈ 30 µM)
> 100	> 110	CN(C)CCCN(C)C(=O)c1ccc(-c2ccc(-c3ccc(C(=O)N(C)CCCN(C)C)cc3)o2)cc1 [Compound 37]	–	–	–
12.5 (≈ 36.1 µM)	6.25 (≈ 18 µM)	N=C(N)c1ccc2nc(CCc3nc4ccc(C(=N)N)cc4[nH]3)[nH]c2c1 [Compound 30]	50 (≈ 144 µM)	–	25 (≈ 72.2 µM)
6.25 (≈ 17.5 µM)	6.25 (≈ 17.5 µM)	N=C(N)c1ccc(OCCCC(O)COc2ccc(C(=N)N)cc2)cc1 (stereo not shown) [Compound 21]	12.5 (≈ 35.1 µM)	–	12.5 (≈ 35.1 µM)
50 (≈ 151 µM)	50 (≈ 151 µM)	c1cc(-c2nc3ccc(C4=NCCN4)cc3[nH]2)ccc1C1=NCCN1 [Compound 62]	> 100	–	–
> 100	> 100	NC(=NO)c1ccc(OCCCOc2ccc(C(N)=NO)cc2)cc1 [Compound 5]	–	–	–
